In ChEMBL document CHEMBL3396976, “Design, synthesis and evaluation of isoxazolo[5,4-d]pyrimidin-4(5H)-one derivatives as antithrombotic agents” (Bioorg Med Chem Lett, 2015):
Calls of active or inactive are those of the source. No cut-off for these calls is given here.

Assays:
[1] = target: T1, Coagulation factor X (Homo sapiens, UniProt P00742); test: Inhibition of human F10a using chromogenic substrate S-2765 preincubated for 10 mins at 0.1 uM by spectrophotometry
[2] = system: Plasma; test: Anticoagulant activity in human plasma assessed as concentration required to double prothrombin time; assay type: functional
[3] = target: T1, Coagulation factor X; test: Inhibition of human F10a using chromogenic substrate S-2765 preincubated for 10 mins by spectrophotometry
[4] = target: Prothrombin (Homo sapiens, UniProt P00734); test: Inhibition of thrombin (unknown origin) using chromogenic substrate S-2238 by spectrophotometry
[5] = species on record: Homo sapiens; test: Selectivity ratio of IC50 for thrombin (unknown origin) to IC50 for human F10a
[6] = species on record: Homo sapiens; test: Selectivity ratio of IC50 for trypsin (unknown origin) to IC50 for human F10a

T1 sequence (P00742 41-179 limits assumed): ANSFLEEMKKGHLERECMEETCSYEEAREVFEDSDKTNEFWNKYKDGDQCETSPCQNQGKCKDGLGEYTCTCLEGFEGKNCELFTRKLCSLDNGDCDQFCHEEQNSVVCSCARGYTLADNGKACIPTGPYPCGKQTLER
T1 sequence (P00742 235-488 limits assumed): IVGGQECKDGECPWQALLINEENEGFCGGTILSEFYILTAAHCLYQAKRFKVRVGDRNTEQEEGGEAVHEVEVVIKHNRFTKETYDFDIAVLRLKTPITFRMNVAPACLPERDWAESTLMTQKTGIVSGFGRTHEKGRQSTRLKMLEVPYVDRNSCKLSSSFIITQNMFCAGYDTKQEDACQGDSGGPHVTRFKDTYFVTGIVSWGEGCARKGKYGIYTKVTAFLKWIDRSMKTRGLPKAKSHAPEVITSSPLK

Compound	inhibition [1]	further results
CCc1nc2onc(-c3ccccc3)c2c(=O)n1-c1ccc(N2CCOCC2=O)cc1	inactive	–
COc1ccc(-c2noc3ncn(-c4ccc(C(=O)NC5CCCCC5)cc4)c(=O)c23)cc1	72%	–
COc1ccc(-c2noc3ncn(-c4ccc(N5CCOCC5=O)cc4)c(=O)c23)cc1	78%	–
CCc1nc2onc(-c3ccc(OC)cc3)c2c(=O)n1-c1ccc(N2CCOCC2=O)cc1	36%	–
CCCNC(=O)c1ccc(-n2cnc3onc(-c4ccc(OC)cc4)c3c2=O)cc1	83%	–
Cc1ccc(-c2noc3nc(C)n(-c4ccc(N5CCOCC5=O)cc4)c(=O)c23)cc1	inactive	–
CCc1nc2onc(-c3ccc(Cl)cc3)c2c(=O)n1-c1ccc(N2CCOCC2=O)cc1	inactive	–
O=C1COCCN1c1ccc(-n2cnc3onc(-c4ccc(Cl)cc4)c3c2=O)cc1	56%	–
Cc1nc2onc(-c3ccc(Cl)cc3)c2c(=O)n1-c1ccc(N2CCOCC2=O)cc1	41%	–
O=C1COCCN1c1ccc(-n2cnc3onc(-c4ccccc4)c3c2=O)cc1	27%	–
Cc1nc2onc(-c3ccc([N+](=O)[O-])cc3)c2c(=O)n1-c1ccc(N2CCOCC2=O)cc1	inactive	–
CCN(CC)C(=O)c1ccc(-n2cnc3onc(-c4ccc(OC)cc4)c3c2=O)cc1	83%	–
CCc1nc2onc(-c3ccc(OC)c(OC)c3)c2c(=O)n1-c1ccc(N2CCOCC2=O)cc1	42%	–
Cc1nc2onc(-c3ccccc3)c2c(=O)n1-c1ccc(N2CCOCC2=O)cc1	inactive	–
O=C(NC[C@H]1CN(c2ccc(N3CCOCC3=O)cc2)C(=O)O1)c1ccc(Cl)s1	Active	–
COc1ccc(-c2noc3ncn(-c4ccc(N5CCOCC5=O)cc4)c(=O)c23)cc1OC	77%	–
COc1ccc(-c2noc3ncn(-c4ccc(C(=O)N5CCCCC5)cc4)c(=O)c23)cc1	54%	–
COc1ccc(-c2noc3ncn(-c4ccc(C(=O)N5CCOCC5)cc4)c(=O)c23)cc1	37%	–
COc1ccc(-c2noc3ncn(-c4ccc(C(=O)Nc5ccccn5)cc4)c(=O)c23)cc1	89%	2PT [2]: 3.37 µM; IC50 [3]: 0.018 µM; IC50 [4]: > 20 µM; Ratio IC50 [5]: > 1000; Ratio IC50 [6]: > 1000
COc1ccc(-c2noc3ncn(-c4ccc(C(=O)N(C)c5ccccc5)cc4)c(=O)c23)cc1	47%	–
COc1ccc(-c2noc3ncn(-c4ccc(C(=O)N5CCCC5)cc4)c(=O)c23)cc1	46%	–
CCc1nc2onc(-c3ccc(C)cc3)c2c(=O)n1-c1ccc(N2CCOCC2=O)cc1	inactive	–
COc1ccc(-c2noc3ncn(-c4ccc(C(=O)NC5CCCC5)cc4)c(=O)c23)cc1	75%	–
O=C1COCCN1c1ccc(-n2cnc3onc(-c4ccc([N+](=O)[O-])cc4)c3c2=O)cc1	inactive	–
COc1ccc(-c2noc3ncn(-c4ccc(C(=O)Nc5ccccc5)cc4)c(=O)c23)cc1	81%	–
COc1ccc(-c2noc3nc(C)n(-c4ccc(N5CCOCC5=O)cc4)c(=O)c23)cc1OC	47%	–
Cc1ccc(-c2noc3ncn(-c4ccc(N5CCOCC5=O)cc4)c(=O)c23)cc1	43%	–
COc1ccc(-c2noc3nc(C)n(-c4ccc(N5CCOCC5=O)cc4)c(=O)c23)cc1	55%	–
COc1cc(-c2noc3ncn(-c4ccc(N5CCOCC5=O)cc4)c(=O)c23)ccc1OC(C)=O	98%	2PT [2]: 2.12 µM; IC50 [3]: 0.013 µM; IC50 [4]: > 20 µM; Ratio IC50 [5]: > 1000; Ratio IC50 [6]: > 1000
CCc1nc2onc(-c3ccc([N+](=O)[O-])cc3)c2c(=O)n1-c1ccc(N2CCOCC2=O)cc1	inactive	–
